From patent US4806642A, “Purine derivatives” (Warner-Lambert Company, priority 1987, dated 1989)

Tests used:
T-cells = assay: selective cytotoxicity for T-cells in the presence of 2'-deoxyguanosine (standard test, Science, 214, 1137, 1981); assay type: cell-based; conditions: in the presence of 10 micromoles of 2'-deoxyguanosine
Source text: (§1) The same compounds also were found by a standard test (Science, 214, 1137, 1981) to be selectively cytotoxic for T-cells in the presence of 2'-deoxyguanosine at a similar concentration range. For example, 2,8-diamino-9-[(2-hydroxyethoxy)methyl)]-9H-purine-6-ol is selectively cytotoxic to T-cell at a concentration of about 30 micromoles in the presence of 10 micromoles of 2'-deoxyguanosine. Similarly, 2-[(2,8-diamino-6-hydroxy-9H-purin-9-yl)methoxy]-1,3-propanediol is selectively cytotoxic to T-cell at a concentration of about 7 micromoles in the presence of 10 micromoles of 2'-deoxyguanosine. Both compounds were nontoxic to B-cell in the presence of the same amount of 2'-deoxyguanosine. Since T-cells play a central role in immune response, use of the compounds of the invention is contemplated for the immunoregulation of autoimmune diseases such as rheumatoid arthritis, systemic lupus erythematosus, inflammatory bowel disease, cancer, and viral diseases, transplantation, juvenile diabetes, myasthenia gravis, and multiple sclerosis. The present invention thus includes compositions containing a compound of formula 1 in treating disease such as autoimmune disease characterized by abnormal immune response in warmblooded animals. […]

B-cell = assay: toxicity to B-cell in the presence of 2'-deoxyguanosine; assay type: cell-based; conditions: in the presence of the same amount (10 micromoles) of 2'-deoxyguanosine
Source text: as §1

SMILES | concentration at which selectively cytotoxic to T-cell (T-cells) | toxicity to B-cell (B-cell)
Nc1nc2c(nc(N)n2COCCO)c(=O)[nH]1 [2,8-Diamino-9-[(2-hydroxyethoxy)methyl)]-9H-purin-6-ol] | about 30 micromoles | nontoxic
Nc1nc(O)c2nc(N)n(COC(CO)CO)c2n1 [2-[(2,8-Diamino-6-hydroxy-9H-purin-9-yl)methoxy]-1,3-propanediol] | about 7 micromoles | nontoxic
